Details of data set [1]: species or system mice (BALB/cA Jcl-nu). The conditions noted are these: mouse, in vivo, 9 mg/kg/day. As to the method:
In vivo experiments were performed in our animal facility in accordance with institutional guidelines. A 0.1-ml aliquot of suspended PK-1 cells (5×10^6 cells) was injected subcutaneously into the flanks of six-week-old female athymic mice (BALB/cA Jcl-nu). Tumor volumes were determined using the formula: 0.52×(larger diameter)×(smaller diameter)×(depth). When the xenograft reached to 100 mm^3 in size, animals were randomly divided into two or three groups and received intratumoral or intravenous injection of 180 μg of 11R-C1958VIVIT, 11R-VEET, or PBS for 21 consecutive days. Tumor growth was assessed by calculating the ratio of tumor volume on the indicated day to the volume calculated on the initiation of treatment.

Data set [2] has as its system PK-1 cells. Description: MTT cell-growth assay for evaluation of inhibitory peptides. The class given is cell-based, Human. The conditions noted are these: FIG. 4. A general note: Tetrazolium dyes change colour on reduction, which living cells bring about.
The subject of data set [3] is PK-1 cells. Description: Flow cytometric analysis of sub-G1 fraction (propidium iodide). The conditions noted are these: 40 μM, 12 hr, FIG. 7. The class given is cell-based, Human. The protocol: PK-1 cell was maintained as described before (RPMI with 10% FBS). The cells were incubated with or without negative control (40 μM as a final concentration) or C1958VIVIT (10, 20, and 40 μM) peptide for 12 hr. After the incubation, cells were detached by trypsin and collected to tubes and washed with PBS for 3 times. Then the cells were fixed with 67% ethanol for 30 min at room temperature (RT), washed with PBS once, and treated with RNase (2 mg/ml in PBS) for 30 min at RT. Finally the cell nuclei were stained with propidium iodide (PI) for 30 min at RT. Flow cytometric analysis was done with FACS calibur (BD).
In general terms: Flow cytometry measures light scatter and fluorescence of single cells or particles in a stream.

This note sets out measurements from US20090215666A1, “VIVIT POLYPEPTIDES, THERAPEUTIC AGENT COMPRISING THE SAME, AND METHOD OF SCREENING FOR ANTI-CANCER AGENT” (Oncotherapy Science, Inc., priority 2005, published 2009).

Ends that are not written are not given here.

Regarding “RRRRRRRRRRRGGGKHLDVPVIVITPPTPT [11R-C1958VIVIT, RRRRRRRRRRR-GGG-KHLDVPVIVITPPTPT]”, in data set [1], the “apparent negative effects on mice conditions” value was “nor apparent negative effects on mice conditions were observed”.

Take “RRRRRRRRRRR-GGG-KHLDVPDIIITPPTPT [11R-C1958]”: the “inhibition of growth of the cells (MTT assay)” value in the data set on PK-1 cells [2] (peptide 25 μM) is recorded as “neither 11R—C1958 (25 μM) nor 11R-VEET (40 μM) peptides, significantly inhibited the growth of the cells”.

Consider “RRRRRRRRRRR-GGG-MAGPPHIVEETGPHVI (RRRRRRRRRRRGGGMAGPPHIVEETGPHVI; Artificially synthesized peptide for inhibition of the interaction of C1958 and PPP3CA as control) [11R-VEET, 10, reference compound]”, for which the “inhibition of growth of the cells (MTT assay)” value in the data set with PK-1 cells [2] (peptide 40 μM) is “neither 11R—C1958 (25 μM) nor 11R-VEET (40 μM) peptides, significantly inhibited the growth of the cells”. Besides, the “sub-G1 fraction of the treated cells” value with PK-1 cells [3] is “did not affect”.
